Patent publication US20210156844A1, “TMEM16A Modulation for Diagnostic or Therapeutic Use in Pulmonary Hypertension (PH)” (Bayer Aktiengesellschaft, priority 2017, published 2021)

Legend:
[1] = test system: U-46619 preconstricted isolated mouse PA; test: Measurement of pulmonary artery tone ex vivo; conditions: cumulatively increasing concentrations 0.1 to 30 μM; U-46619 30 nM
Experimental: Pulmonary artery rings were isolated from male C57BL/6J mice (20-25 weeks old, Charles River, Wilmington Mass., USA), as described by Jain et al. (Jain, P P, et al., Int. J. Nanomedicine (2014) 9, 3249-3261). Following stable contraction (approx. 30 minutes post-addition of U-46619, 30 nM), the arteries were subjected to cumulatively increasing concentrations (0.1 to 30 μM) of the TMEM6A blockers T16Ainh-A01 (Tocris) and benzbromarone (Sigma) in order to analyze the concentration-response relationships.

PASMC = test: Membrane potential (Em) measurement, current clamp, primary PASMC; type: cell-based, human; conditions: BBR 30 μM, T16Ainh-A01 10 μM
Experimental: PASMC were grown on glass coverslips and serum starved for 24-48 hours. The coverslips were perfused with a bath solution composed of (in mM) NaCl 141, KCl 4.7, HEPES 10, glucose 10, CaCl2 1.8, MgCl2 1.2, pH 7.4 (NaOH) at room temperature. Micropipettes were pulled of borosilicate glass capillaries (GC150F-10, Harvard Apparatus Ltd, Edenbridge, Kent, UK) with a P-2000 electrode puller (Sutter Instruments, Novato Ca, USA), and fire polished using a micro-forge (MF-830, Narishige, Tokyo, Japan) to give a final resistance of 3-5 MΩ when filled with the pipette solution (composition in mM: NaCl 10, KCl 125, K2ATP 5, HEPES 10, EGTA 5, MgCl2 4, pH set to 7.2 with KOH). Em was measured with a HEKA EPC10 patch clamp amplifier (Dr. Schulze GmbH, Lambrecht, Germany) in the current clamp mode as described by others (Mason, M J, et al., Biophys. J. (2005) 88, 739-750; Perkins, KL, J. Neurosci. Methods (2006) 154, 1-18).
The liquid junction potential was calculated with the Clampex 10.0 software (Molecular Devices, Sunnyvale Calif., USA) and an online correction was made for each recording. Both at baseline and during perfusion with 30 μM benzbromarone (BBR, Sigma, St Louis Mo., USA) or 10 μM T16Ainh-A01 (Tocris, Bristol, UK), only those recordings in which (1) the Em was constant for at least 3 minutes, and (2) the seal resistance was constantly high (>5 GΩ) were used for the analyses.
The HEK-293 cells were transfected overnight either with the CLCA1 gene containing or with the empty plasmid, using the Effectene transfection reagent kit (Qiagen) and DMEM F-12 complete medium. On the next day, the medium was changed to serum-free SMC Medium. The resulting conditioned media were collected 24 hours later and applied on the PASMC of healthy donors. After 24 hours of incubation, the Em of the PASMC was measured as described above. To confirm the presence of CLCA1 in the conditioned medium, 20 μL of conditioned medium as well as control medium (collected from cells transfected with the empty plasmide) were analyzed with western blot as described above, using a CLCA1 antibody (ab108851, Abcam).

SMILES: CCc1c(C)nc(SCC(=O)Nc2nc(-c3ccc(OC)cc3)cs2)[nH]c1=O [T16Ainh-A01, 2-[(5-Ethyl-1,6-dihydro-4-methyl-6-oxo-2-pyrimidinyl)thio]-N-[4-(4-methoxyphenyl)-2-thiazolyl]-acetamide]
- vasorelaxation of preconstricted PA [1]: dose-dependent vasorelaxation
- reversal of the Em of IPAH-PASMC to the levels of PASMC isolated from healthy donors (PASMC; PASMC of IPAH patients): close
- effect on Em of PASMC of donors (PASMC; PASMC of healthy donors): no effect
